From patent US20260335456A1, “ANTIBODY-DRUG CONJUGATE HAVING CAMPTOTHECIN-BASED DRUG LINKED TO ANTIBODY HAVING LOW ANTIGEN-BINDING AFFINITY THROUGH LINKER” (PINOTBIO, INC., priority 2022, published 2026)

Columns and labels:
EGFR [1] = conditions: cited from earlier work
patients [2] = conditions: phase 1 studies; cited from earlier work
patients [3] = conditions: cited from earlier work
[4] = tested on: normal skin and kidney cells; conditions: compared with cetuximab; cited from earlier work
FaDu Xenograft model = test: PBX-001 in FaDu Xenograft model; type: in vivo; conditions: DAR 8, FIGS. 12 and 13
Trop2 = target: T1, Trop2 (Homo sapiens, UniProt P09758); test: PBX-001 in vitro and in vivo efficacy versus Trodelvy; conditions: FIGS. 11 to 13
T1 sequence (P09758 27-323): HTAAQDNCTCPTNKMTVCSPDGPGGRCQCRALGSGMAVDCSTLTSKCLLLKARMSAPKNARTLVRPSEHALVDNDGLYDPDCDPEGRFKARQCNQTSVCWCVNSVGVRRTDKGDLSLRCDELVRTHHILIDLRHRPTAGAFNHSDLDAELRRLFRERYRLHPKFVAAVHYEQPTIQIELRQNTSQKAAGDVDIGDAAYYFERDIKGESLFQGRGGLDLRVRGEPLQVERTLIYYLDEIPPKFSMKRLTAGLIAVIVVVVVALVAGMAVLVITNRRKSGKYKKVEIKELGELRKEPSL

non-human primate = test: PBX-001 non-human primate toxicity study; type: in vivo
[5] = tested on: cells with an ABCG2 efflux pump; test: ABCG2 efflux pump resistance, PBX-001 versus Trodelvy; type: cell-based
relapsed glioblastoma = conditions: cited from earlier work
liver = conditions: versus parent hRS7 IgG; U.S. Pat. No. 9,629,926 B; cited from earlier work
EGFR [6] = conditions: cited from earlier work; remark: listed apart in the source

## ABX-EGF: fully humanized IgG2 monoclonal antibody to EGFR
EGFR [1]
  affinity for EGFR versus cetuximab: higher affinity for EGFR than cetuximab
Patients [2]
  most common toxicity: skin toxicity

## Nimotuzumab: humanized IgG1 EGFR-targeting antibody
Patients [3]; humans
  side effects severity: only mild to moderate in severity
Patients [3]; patients
  incidence of severe acneiform rash and gastrointestinal mucosal toxicity: much lower incidence
[4]
  binding to normal skin and kidney cells: much less binding than cetuximab

## PBX-001: ADC of humanized anti-Trop2 antibody hRS7, FL118 and CL2A linker system
FaDu Xenograft model
  anticancer efficacy and weight loss: excellent anticancer efficacy without weight loss
Trop2
  in vitro and in vivo efficacy versus Trodelvy: better efficacy than Trodelvy
non-human primate
  safety: excellent safety
[5]
  resistance through ABCG2 efflux pump: not affected

## ABT-414: ADC targeting EGFR variant III
Relapsed glioblastoma
  monotherapy efficacy: promising monotherapy efficacy

## hRS7-CL2A-SN-38: Trop-2 ADC of hRS7 with CL2A-SN-38
liver
  liver uptake: two-fold higher liver uptake

## panitumumab: antibody drug targeting EGFR
EGFR [6]
  binding affinity relative to nimotuzumab: more than 10 times
